The text below walks through data of patent EP0525360B1, “Novel phenylacetamide derivatives and processes for the preparation thereof” (KOREA RESEARCH INSTITUTE OF CHEMICAL TECHNOLOGY, priority 1991, dated 1993).

SMILES strings stand for the structures. Structures can show the parent of a compound that is named as a salt.

Common to all, as to format: in vivo
In one data set the test system is mice. The data set can be described thus: Tail-flick test (radiant heat). On the procedure: Radiant heat was applied using a beam of high-intensity light focused on a tail spot. The response time, defined as the interval between the onset of the stimulus and the tail flick, was measured electronically(to the nearest 0.1 second). The beam intensity was set at a level giving a mean control reaction time of 3.8±0.4 seconds. […] The percentage of inhibition was determined by the following equation: Inhibition(%) =(Reaction time of the treated group - Reaction time of the control group)/(Reaction time of the control group)x 100 [formula]
(In general: Thermal pain tests record how soon the animal reacts.)

The subject of data set [1] is KTC-ICR mice. The data set can be described thus: acetic acid induced writhing test. The following applies: Mus musculus; oral; 0.9% acetic acid i.p. 60 minutes later; writhings during 10 minutes; mice 20 to 25g; Examples 1 to 32. How it is done: (§1) The KTC-ICR mice derived from Charles River Breeding Laboratory in the United States and provided by Experimental Animal Laboratory of Korea Research Institute of Chemical Technology were used as test animals. […] They were tested after having been adjusted to the testing environment for a week. Food and water were given freely; and illumination was maintained on a 12-hour cycle.
(§2) Experiments were performed in two ways: that is, the acetic acid induced writhing test and the phenyl-1,4-benzoquinone(PBQ) induced writhing test.
Solutions for the acetic acid induced writhing test were prepared by dissolving one of the end products prepared in Examples […] in a saline solution containing 1% by weight of Tween 80 to have a concentration of 5mg/mℓ and diluting it serially with the saline solution. The test solutions were administered orally in a dose of 0.3mℓ per 30g of body weight, using the 5 ICR mice for each test. 60 minutes later, 0.9% acetic acid solution was administered intraperitoneally in a dose of 0.1mℓ per 30g of body weight. 3 minutes thereafter, the number of writhings generated during a period of 10 minutes due to the administration of acetic acid was measured. For comparison purpose, initially, saline solution alone was administered orally to the control group. 60 minutes thereafter, 0.9% acetic acid solution was administered intraperitoneally to the control group.
(§3) The number of writhings suffered by the test group was compared with that of the control group; and the analgesic effect was measured in terms of the percentage of inhibition of writhing(I. W.). I. W. (%) =(A - B)/(A)x 100 [formula] A : the number of writhings suffered by the control group, B : the number of writhings suffered by the test group.
(§4) These ED50 values for the test compounds are shown in the last column of Table 1.

The test system of a further data set is test animals. The data set can be described thus: Behavior analysis (side-effect or toxicity scores). Further details: key to Sedation / Dyspnoea / Vasodilation / Convulsion / Salivation / Urination: behavior score; higher number = greater side effects. To be noted: behavior score; for Convulsion / Salivation / Urination: normal value 0; for Dyspnoea / Ptosis / Sedation / Vasodilation: normal value 4. An excerpt:
In order to monitor a harmful side-effect or toxicity of the compounds having the formula(I), various behavioral changes in the test animals were observed. […] The higher the number is, the greater the side effects are.

The test system of data set [2] is KTC-ICR mice. Briefly: phenyl-1,4-benzoquinone(PBQ) induced writhing test. To be noted: Mus musculus; oral; 0.02% PBQ i.p. 60 minutes later; writhings during 5 minutes; mice 10 to 15g; Examples 33 to 46. How it is done: as §1, §2
Alternatively, solutions for the PBQ induced writhing test were prepared by dissolving one of the products synthesized in Examples 33 to 46 in a mixture of Tween 80, alcohol and distilled water (1:5:94); and administered orally to the 5 ICR mice for each test in a dose of 0.3mℓ per 30g of body weight. 60 minutes later, 0.02% PBQ solution was administered intraperitoneally in a dose of 0.1mℓ per 30g of body weight of the test animals. 5 minutes thereafter, at the temperature of 40°C, the number of writhings occurred during a period of 5 minutes due to the PBQ solution administered was measured. For comparison, only the mixture of Tween 80, alcohol and distilled water was administered orally to the control group; and, after 60 minutes, the PBQ solution was administered intraperitoneally to the control group in the same manner as mentioned above.
as §3, §4
A general note: Writhing tests count abdominal constrictions after an irritant is injected.

Consider `COc1cc(CNC(=O)CCCC/C=C/C(C)C)ccc1O` [Capsaicin, trans-8-methyl-N-vanillyl-6-nonenamide, reference compound], for which the “Inhibition(%)” value with mice (mouse, in vivo, 25 mg/kg) is reported as 90%.
Regarding `COc1cc(CC(=O)NCCCc2ccc(C)c(C)c2)ccc1OCCN` [Example 1-l-tartarate], the “Inhibition(%)” value was 50% in the data set with mice (p. o., dose 1.25 mg/Kg) and 90% with mice (p. o., dose 2.5 mg/Kg).
One may read the ED50 as the dose that gives a 50% effect, or the effect in half of the subjects. In the data set with KTC-ICR mice [1], `Cc1ccc(CCCNC(=O)Cc2ccc(OCCN)cc2)cc1C` [Example 2] displayed an ED50 of 3.98 mg/kg.
On the same count and under the same terms, the result for `Cc1ccc(CCCNC(=O)Cc2ccc(OCCN)c(F)c2)cc1C` [Example 3] reads 2.95 mg/kg; that for `Cc1ccc(CCCNC(=O)Cc2ccc(OCCN)c(Cl)c2)cc1C` [Example 4], 4.78 mg/kg; that for `Cc1cccc(CCCNC(=O)Cc2ccc(OCCN)cc2)c1` [Example 6], 26.3 mg/kg.
The same measure, in the same setting: for `Cc1cccc(CCCNC(=O)Cc2ccc(OCCN)c(F)c2)c1` [Example 7] the value was 2.3 mg/kg.
As for `Cc1cccc(CCCNC(=O)Cc2ccc(OCCN)c(Cl)c2)c1` [Example 8], the ED50 in the data set with KTC-ICR mice [1] was 42.6 mg/kg.
Same read-out and setting: the result for `COc1cc(CC(=O)NCCCc2ccc(C)cc2)ccc1OCCN` [Example 9] reads 1.73 mg/kg; that for `Cc1ccc(CCCNC(=O)Cc2ccc(OCCN)cc2)cc1` [Example 10], 7.9 mg/kg.
The same measure, in the same setting: the result for `Cc1ccc(CCCNC(=O)Cc2ccc(OCCN)c(Cl)c2)cc1` [Example 12] reads 4.7 mg/kg; that for `COc1cc(CC(=O)NCCCc2cc(C)cc(C)c2)ccc1OCCN` [Example 13], 4.6 mg/kg.
Same read-out and setting: the result for `Cc1cc(C)cc(CCCNC(=O)Cc2ccc(OCCN)cc2)c1` [Example 14] reads 3.16 mg/kg.
In turn, `Cc1cc(C)cc(CCCNC(=O)Cc2ccc(OCCN)c(Cl)c2)c1` [Example 16] came in with an ED50 in the data set with KTC-ICR mice [1] of 123 mg/kg.
In the data set with KTC-ICR mice [1], `COc1cc(CC(=O)NCCc2cc(C)cc(C)c2)ccc1OCCN` [Example 17] displayed an ED50 of 0.77 mg/kg.
In turn, `COc1cc(CC(=O)NCCCc2ccc(Cl)cc2)ccc1OCCN` [Example 18, N-{3-(4-chlorophenyl)propyl}-4-(2-aminoethoxy)-3-methoxyphenylacetamide] returned a median effective dose (ED50) in the data set on KTC-ICR mice [1] of 0.4 mg/kg.
The molecule `NCCOc1ccc(CC(=O)NCCCc2ccc(Cl)cc2)cc1` [Example 19, N-{3-(4-chlorophenyl)propyl}-4-(2-aminoethoxy)phenylacetamide] returned an ED50 in the data set on KTC-ICR mice [1] of 0.03 mg/kg.
The same measure, in the same setting: for `NCCOc1ccc(CC(=O)NCCCc2ccc(Cl)cc2)cc1F` [Example 20, N-{3-(4-chlorophenyl)propyl}-4-(2-aminoethoxy)-3-fluorophenylacetamide] the value was 0.07 mg/kg; for `NCCOc1ccc(CC(=O)NCCCc2ccc(Cl)cc2)cc1Cl` [Example 21, N-{3-(4-chlorophenyl)propyl}-4-(2-aminoethoxy)-3-chlorophenylacetamide], 0.04 mg/kg.
Molecule `COc1cc(CC(=O)NCCCc2ccc(Cl)c(Cl)c2)ccc1OCCN` [Example 24, N-{3-(3,4-dichlorophenyl)propyl}-4-(2-aminoethoxy)-3-methoxyphenylacetamide] returned an ED50 in the data set with KTC-ICR mice [1] of 0.66 mg/kg.
Same read-out and setting: the result for `COc1cc(CC(=O)NCCCc2ccc3c(c2)OCO3)ccc1OCCN` [Example 25, N-{3-(3,4-methylenedioxyphenyl)propyl}-4-(2-aminoethoxy)-3-methoxyphenylacetamide] reads 0.8 mg/kg; that for `COc1cc(CC(=O)NCCCc2cccc(C(F)(F)F)c2)ccc1OCCN` [Example 26, N-{3-(3-trifluoromethylphenyl)propyl}-4-(2-aminoethoxy)-3-methoxyphenylacetamide], 1.54 mg/kg.
Same read-out and setting: the result for `COc1cccc(CCCNC(=O)Cc2ccc(OCCN)c(OC)c2)c1` [Example 27, N-{3-(3-methoxyphenyl)propyl}-4-(2-aminoethoxy)-3-methoxyphenylacetamide] reads 1.25 mg/kg; that for `COc1cc(CC(=O)NCCCc2cccc(OCc3ccccc3)c2)ccc1OCCN` [Example 28, N-{3-(3-benzyloxyphenyl)propyl}-4-(2-aminoethoxy)-3-methoxyphenylacetamide], 28.8 mg/kg.
On the same count and under the same terms, for `COc1cc(CC(=O)NCCCCc2cccc(C)c2)ccc1OCCN` [Example 30] the value was 1.54 mg/kg; for `Cc1cccc(CCCCNC(=O)Cc2ccc(OCCN)cc2)c1` [Example 31], 3.3 mg/kg.
As for `Cc1ccc(CCCCNC(=O)Cc2ccc(OCCN)c(F)c2)cc1C` [Example 32], in the data set on KTC-ICR mice [1], the 50% effective dose (ED50) came to 1.44 mg/kg.
In the data set on test animals (dose 0.2mg/Kg), `Cc1ccc(CCCNC(=O)Cc2ccc(OCCN)c(O)c2)cc1C` [Example 33, N-{3-(3,4-dimethylphenyl)propyl}-4-(2-aminoethoxy)-3-hydroxyphenylacetamide] came in with a Convulsion of 0, a Salivation of 0, a Urination of 0 and a Dyspnoea of 4. In the data set with test animals (dose 0.2mg/Kg), the Ptosis was determined as 4, the Sedation is 4 and the Vasodilation is given as 4. In the data set on test animals (dose 0.6mg/Kg), this molecule displayed a Convulsion of 0, a Salivation of 0, a Urination of 0 and a Dyspnoea of 4. In the data set on test animals (dose 0.6mg/Kg), this molecule had a Ptosis of 4, a Sedation of 5 and a Vasodilation of 4. For the same molecule, in the data set on test animals (dose 2.0mg/Kg), the Convulsion is 0, the Salivation is reported as 0, the Urination turned out to be 0 and the Dyspnoea is given as 5. In the data set with test animals (dose 2.0mg/Kg), this molecule displayed a Ptosis of 6, a Sedation of 7 and a Vasodilation of 4. The molecule further returned an ED50 in the data set with KTC-ICR mice [2] of 0.49 mg/kg.
For the molecule `NCCOc1ccc(CC(=O)NCCCc2ccc(F)cc2)cc1N` [Example 40-HCl], the “Inhibition(%)” value in the data set with mice (p. o., dose 50 mg/Kg) is on record as 67%.
For the molecule `NCCOc1ccc(CC(=O)NCCCc2cccc(C(F)(F)F)c2)cc1N` [Example 42, N-{3-(3-trifluoromethylphenyl)propyl}-4-(2-aminoethoxy)-3-aminophenylacetamide], in the data set on test animals (dose 11.1mg/Kg), the Convulsion turned out to be 0, the Salivation is 0, the Urination stood at 0 and the Dyspnoea came to 4. In the data set on test animals (dose 11.1mg/Kg), this molecule gave a Ptosis of 4, a Sedation of 4 and a Vasodilation of 4. In the data set on test animals (dose 33.3mg/Kg), this molecule displayed a Convulsion of 0, a Salivation of 0, a Urination of 0 and a Dyspnoea of 4. In the data set with test animals (dose 33.3mg/Kg), this molecule had a Ptosis of 4, a Sedation of 4 and a Vasodilation of 4. Besides, in the data set with test animals (dose 100mg/Kg), the Convulsion is listed as 0, the Salivation was 0, the Urination amounted to 0 and the Dyspnoea is 4. Also, in the data set with test animals (dose 100mg/Kg), the Ptosis amounted to 7, the Sedation is recorded as 7 and the Vasodilation turned out to be 4. Also, the “Inhibition(%)” value in the data set with mice (p. o., dose 100 mg/Kg) was determined as 40%.
For the molecule `Cc1ccc(CCCNC(=O)Cc2ccc(OCCN)c([N+](=O)[O-])c2)cc1C` [Example 43, N-{3-(3,4-dimethylphenyl)propyl}-4-(2-aminoethoxy)-3-nitrophenylacetamide], the ED50 in the data set on KTC-ICR mice [2] was found to be 22.5 mg/kg.
With `CN1C(C(=O)Nc2ccccn2)=C(O)c2ccccc2S1(=O)=O` [Piroxicam, reference compound], the “Inhibition(%)” value in the data set on mice (p. o., dose 100 mg/Kg) amounted to 0%.
